Measured values published in article PMC12722920, “Pharmacokinetics and pharmacodynamics of cannabigerol (CBG) in the C57BL/6Crl mouse” (Frontiers in Pharmacology, 2025).
Like-named read-outs stand apart in the source and are kept apart here.

How the values were obtained:
C57BL/6Crl mice [1] = experiment: Open field test (OFT): locomotion and anxiety-like behaviour; format: in vivo; settings: for OFT time in the center: compared to the vehicle
Experimental: Catalepsy was assessed in the ring holding assay; mice were positioned with their forepaws grasping onto a 0.5 cm thick ring clamp elevated 5 cm above the testing surface. The duration of time while the ring was held was recorded in seconds, with each trial terminated if the mouse’s forepaw released from the bar, upon turning of the head or body, or after 60 s of immobility. Catalepsy was evaluated three times consecutively, and the average time spent holding the bar was reported as a percent of the maximum possible effect (% MPE, up to 60 s). Internal body temperature was measured via a rectal thermometer. Nociception was determined by assessing tail-flick latency, where mice were restrained with their tails placed ∼1 cm into 52 °C ± 2 °C water. The time (sec) until the tail was removed was measured, with observations ending at 20 s and represented as a % MPE. Locomotion and anxiety-like behaviour were assessed in the OFT. Mice were placed in an open space (90 cm × 90 cm) and recorded for 5 min. Total distance travelled (cm), velocity (cm/sec), time in the centre quadrant (sec), and central quadrant entries were measured with EthoVision XT (Noldus Information Technology Inc., Leesburg, VA).
In Phase I (Part B), after determining the timepoint at which blood CBG concentrations were highest for each respective route of administration, the timing for each measure in the tetrad was adjusted. An assessment was conducted in a new cohort consisting of both male and female mice (n = 4 per sex per route) receiving a dose of 10 mg/kg of CBG via i.v., i.p., or p.o. routes. For those administered with i.v. CBG, the timing was: catalepsy at 5 min, body temperature at 15 min, tail-flick latency at 20 min, and OFT at 25 min post-injection. For i.p. CBG, measurements were taken at 20 min for catalepsy, 25 min for body temperature, 30 min for tail-flick latency, and 35 min for OFT post-injection. For p.o. CBG, data collection was scheduled as follows: catalepsy at 170 min, body temperature at 175 min, tail-flick latency at 180 min, and OFT at 185 min post-injection.

[2] = THC 10 mg/kg i.v.; ref Zagzoog et al., 2024; cited from earlier work
C57BL/6Crl mice [3] = test system: C57BL/6Crl mice; set-up: method as in Zagzoog et al., 2024; settings: THC, ref Zagzoog et al., 2024, cited from earlier work
C57BL/6Crl mice [4] = test system: C57BL/6Crl mice; set-up: method as in Zagzoog et al., 2024; settings: THC, ref Zagzoog et al., 2024, cited from earlier work; remark: listed apart in the source
[5] = ref Zagzoog et al., 2024, cited from earlier work
C57BL/6Crl mice [6] = test system: C57BL/6Crl mice; set-up: method as in Zagzoog et al., 2024; settings: THC, ref Zagzoog et al., 2024, cited from earlier work; remark: listed apart in the source

With `CCCCCc1cc(O)c2c(c1)OC(C)(C)[C@@H]1CCC(C)=C[C@@H]21` [THC, Δ^9-Tetrahydrocannabinol] the “OFT entries to the center” value (C57BL/6Crl mice [1]; 10 mg/kg i.p., compared to vehicle) was “entered the center fewer times than their vehicle-treated counterparts”, the OFT velocity (C57BL/6Crl mice [1]; 10 mg/kg i.v., 25 min post-administration, male and female mice) was “reduced velocity compared to vehicle treatment” and the “OFT time in the center” value (C57BL/6Crl mice [1]; 10 mg/kg i.v.) was “Time in the center was reduced”. For the same molecule, the “OFT entries to the center” value (C57BL/6Crl mice [1]; 10 mg/kg i.v., compared to vehicle) was “entered the center fewer times than their vehicle-treated counterparts”, the “OFT entries to the center” value (C57BL/6Crl mice [1]; 10 mg/kg p.o.) was “entered the center of the OFT fewer times than vehicle oral gavage mice” and the “OFT time in the center” value (C57BL/6Crl mice [1]; 10 mg/kg p.o.) was “Time in the center was reduced”. For the same molecule, the mean blood concentration [2] was 526 ng/mL, the ED50 tail-flick latency (C57BL/6Crl mice [3]; both sexes) was 4.1 mg/kg and the ED50 tail-flick latency (C57BL/6Crl mice [3]; females) was 3.6 mg/kg. For the same molecule, the ED50 tail-flick latency (C57BL/6Crl mice [3]; males) was 4.9 mg/kg, the ED50 body temperature (C57BL/6Crl mice [4]; both sexes) was 7.8 mg/kg and the ED50 body temperature (C57BL/6Crl mice [4]; females) was 7.3 mg/kg. For the same molecule, the ED50 body temperature (C57BL/6Crl mice [4]; males) was 8.3 mg/kg, the Cmax ([5]; 10 mg/kg THC i.p.) was 377 ng/mL and the “C at 10 min (blood concentration 10 min post-administration)” value ([5]; THC i.v., males) was 1,290 ng/mL. For the same molecule, the Cmax ([5]; THC p.o.) was 149.5 ng/mL, the “p.o. Cmax as percent of i.p. Cmax” value ([5]; THC) was 40% and the ED50 catalepsy (C57BL/6Crl mice [6]; both sexes) was 6.9 mg/kg. The ED50 catalepsy (C57BL/6Crl mice [6]; females) was 6.0 mg/kg and the ED50 catalepsy (C57BL/6Crl mice [6]; males) was 8.6 mg/kg.
